Test [1] relates to ATXN3 transcripts containing exon 4. Description: ATXN3 Quantitative Splicing Assay (qPCR, E4E5 primers/probe). It counts as cell-based, Human. As to conditions: SK-N-MC cells, treated with compounds for 24 h, qPCR of transcripts containing exon 4. On the procedure: Human neuroblastoma SK-N-MC cells were plated in 384-well plates at 20,000 cells/well. Twenty-four hours after plating, cells were treated with compounds for 24 h at appropriate concentrations ranging from 30.M to 0.6 nM (0.300 DMS0). Treated cells were lysed in 15 μL of lysis buffer, and cDNA was synthesized using the Fast Advanced Cells-to-Ct kit. Two μL of each cDNA was used in qPCR reactions to confirm the exon 4 skipped transcripts of ATXN3. A second set of primers/probe E4E5 was used to detect the transcripts containing exon 4. The third set of primers/probe E8E9 was used to detect total gene level of ATXN3. The qPCR reactions were prepared in 384-well plates in 10 μL volume, using TaqMan™ Fast Advanced Master Mix with primers and probes shown in the table below. Reactions were run in a Quant Studio 6 qPCR instrument with default settings.
The primers and probes are listed below in Table 4.
In general terms: Quantitative PCR measures a nucleic acid by following its amplification.

The subject of the next test is total ATXN3 protein. The test can be described thus: ATXN3 total protein assay (Mesoscale Discovery). It counts as cell-based, Human. As to conditions: SK-N-MC cells, 48 hours incubation, MSD assay. The method, then:
Human neuroblastoma SK-N-MC cells were seeded at 10,000 cells/well in 384 well plates one day prior to compound treatment. The concentrations of compounds were tested at appropriate doses ranging from 30 μM to 0.6 nM. After incubation for 48 hours, the cells were lysed with 25 μL of lysis buffer containing protease inhibitors, and total ATXN3 protein levels were assessed by Mesoscale Discovery (MSD) assay developed with one pair of anti-ATXN3 antibodies. The capture and detect antibodies were raised in mouse and rabbit respectively. Anti-rabbit MSD-ST antibody was used for secondary antibody. ATXN3 recombinant protein was used for standards. The readouts were captured with 35 μL of MSD read buffer and multi-array 384-well high binding plates.

Another test deals with ATXN3-HiBiT protein. Description: ATXN3 HiBiT assay (Nano Glo HiBiT luminescence). It counts as cell-based. As to conditions: Kelly-ATXN3-HiBiT cells, luminescence read out 48 h after addition of the compound. The text has this: To monitor ATXN3 protein levels by luminescence, a Kelly-ATXN3-HiBiT cell line with homozygous knock-in of HiBiT at the C-terminus of the endogenous ATXN3 gene was used (knock-in of the HiBiT-tag coding sequence SEQ ID NO. 14: 5′[…]3′ into exon 11 of ATXN3 -position 1114 of ATXN3 RefSeq NM_004993.6). Manipulations of the Kelly-ATXN3-HiBiT cell line that result in downregulation of the ATXN3-HiBiT protein (through modulation of ATXN3-HiBiT pre-mRNA splicing) can be followed by monitoring the luminescence signal of the HiBiT tag using the Nano Glo HiBiT Lytic Detection System (Promega, #N3050). Kelly-ATXN3-HiBiT cells were maintained in RPMI 1640 w/Glutamax (Gibco, #61870010), 10% FBS (Sigma Aldrich, #F8687), 1% Penicillin/Streptomycin (Gibco, #15140-122) at 37° C., 5% CO2. To assess HiBiT-luminescence signal upon compound treatment, 2000 Kelly-ATXN3-HiBiT cells were seeded per well in 384 plate format. Compounds were added 24 h after seeding. ATXN3-HiBiT-luminescence signal was read out 48 h after addition of the compound using the Nano Glo HiBiT Lytic Detection System (Promega, #N3050) according to the manufacturer's instructions. To control for cell viability, an identically prepared sister plate was read out with the CellTiter-Glo® 2.0 Assay (Promega, #G9243) according to the manufacturer's instructions. Fold changes of ATXN3-HiBiT-luminescence and of CellTiter-Glo viability signals were calculated relative to a DMSO control condition.
On the technique in general: HiBiT is a short tag that completes a luciferase, so light tracks the accessible tagged protein.

Regarding `CC#Cc1c(C2CCC2N)oc2c(NCc3cccs3)cc(Cl)nc12` (single isomer, unassigned) [Compound 50, 2-(2-aminocyclobutyl)-5-chloro-3-(prop-1-yn-1-yl)-N-(thiophen-2-ylmethyl)furo[3,2-b]pyridin-7-amine], the IC50 in test [1] (Homo sapiens) is 501 to 5000 nM.
On to `CC#Cc1c(C2CCC2N)oc2c(NCc3cccs3)cc(Cl)nc12` (single isomer, unassigned) [Compound 51, 2-(2-aminocyclobutyl)-5-chloro-3-(prop-1-yn-1-yl)-N-(thiophen-2-ylmethyl)furo[3,2-b]pyridin-7-amine], for which, in test [1], the IC50 is 501 to 5000 nM.
Take `CC#Cc1c(C[C@H](C)N)oc2c(NCc3cccs3)cc(Cl)nc12` [Compound 1, 2-[(S)-2-aminopropyl]-5-chloro-3-(1-propynyl)-7-thenylamino-1-oxa-4-azaindene]: the IC50 (in the test on total ATXN3 protein; in test [1] (Homo sapiens)) was 101 to 500 nM each time. The same molecule returned an EC50 in the test with ATXN3-HiBiT protein of 101 to 500 nM.
Turning to `CC#Cc1c(C[C@H](C)N)oc2c(NCc3ccco3)cc(Cl)nc12` [Compound 2, 2-[(S)-2-aminopropyl]-5-chloro-7-(furfurylamino)-3-(1-propynyl)-1-oxa-4-azaindene], the IC50 (with total ATXN3 protein; in test [1] (Homo sapiens)) was 101 to 500 nM throughout. This molecule also returned an EC50 in the test with ATXN3-HiBiT protein of 101 to 500 nM.
Regarding `CC#Cc1c(C[C@@H](N)CC(F)(F)F)oc2c(NCc3ccco3)cc(Cl)nc12` [Compound 3, 2-[(R)-2-amino-4,4,4-trifluorobutyl]-5-chloro-7-(furfurylamino)-3-(1-propynyl)-1-oxa-4-azaindene], the IC50 (in the test with total ATXN3 protein; in test [1] (Homo sapiens)) was 101 to 500 nM in each case. The EC50 with ATXN3-HiBiT protein was in the range of 101 to 500 nM.
As for `CC#Cc1c(C[C@@H](N)CC(F)(F)F)oc2c(NCc3cccs3)cc(Cl)nc12` [Compound 4, 2-[(R)-2-amino-4,4,4-trifluorobutyl]-5-chloro-3-(1-propynyl)-7-thenylamino-1-oxa-4-azaindene], the IC50 (in the test with total ATXN3 protein; in test [1] (Homo sapiens)) was 101 to 500 nM in each case. The molecule also gave an EC50 with ATXN3-HiBiT protein of 101 to 500 nM.
For the molecule `CC#Cc1c(C[C@@H](N)[C@H](C)F)oc2c(NCc3ccco3)cc(Cl)nc12` [Compound 5, 2-[(2R,3S)-2-amino-3-fluorobutyl]-5-chloro-7-(furfurylamino)-3-(1-propynyl)-1-oxa-4-azaindene], the IC50 (in the test on total ATXN3 protein; in test [1] (Homo sapiens)) was 0.01 to 100 nM throughout. Further, in the test on ATXN3-HiBiT protein, the EC50 fell in the range of 0.01 to 100 nM.
On to `CC#Cc1c(C[C@@H](N)[C@H](C)F)oc2c(NCc3cccs3)cc(Cl)nc12` [Compound 6, 2-[(2R,3S)-2-amino-3-fluorobutyl]-5-chloro-3-(1-propynyl)-7-thenylamino-1-oxa-4-azaindene], for which the IC50 (in the test on total ATXN3 protein; in test [1] (Homo sapiens)) was 0.01 to 100 nM each time. This molecule showed a half-maximal effective concentration (EC50) in the test with ATXN3-HiBiT protein of 0.01 to 100 nM.
In the case of `C[C@H](F)[C@H](N)Cc1oc2c(NCc3ccco3)cc(Cl)nc2c1C#CC1CC1` [Compound 7, 2-[(2R,3S)-2-amino-3-fluorobutyl]-5-chloro-3-(2-cyclopropylethynyl)-7-(furfurylamino)-1-oxa-4-azaindene], the half-inhibitory concentration (IC50) (in the test on total ATXN3 protein; in test [1] (Homo sapiens)) was 101 to 500 nM each time. For the same molecule, the EC50 in the test with ATXN3-HiBiT protein lay within 101 to 500 nM.
Regarding `C[C@H](F)[C@H](N)Cc1oc2c(NCc3cccs3)cc(Cl)nc2c1C#CC1CC1` [Compound 8, 2-[(2R,3S)-2-amino-3-fluorobutyl]-5-chloro-3-(2-cyclopropylethynyl)-7-thenylamino-1-oxa-4-azaindene], the IC50 in the test with total ATXN3 protein was in the range of 501 to 5000 nM; in test [1] (Homo sapiens) it was 101 to 500 nM. The same molecule registered an EC50 in the test with ATXN3-HiBiT protein of 101 to 500 nM.
In the case of `C[C@H](N)Cc1oc2c(NCc3ccco3)cc(Cl)nc2c1C#CC1CC1` [Compound 9, 2-[(S)-2-aminopropyl]-5-chloro-3-(2-cyclopropylethynyl)-7-(furfurylamino)-1-oxa-4-azaindene], the IC50 (with total ATXN3 protein; in test [1] (Homo sapiens)) was 501 to 5000 nM throughout. The EC50 with ATXN3-HiBiT protein was in the range of 501 to 5000 nM.
As to `C[C@H](N)Cc1oc2c(NCc3cccs3)cc(Cl)nc2c1C#CC1CC1` [Compound 10, 2-[(S)-2-aminopropyl]-5-chloro-3-(2-cyclopropylethynyl)-7-thenylamino-1-oxa-4-azaindene], the IC50 (in the test with total ATXN3 protein; in test [1] (Homo sapiens)) was 501 to 5000 nM throughout. The molecule also came in with an EC50 in the test on ATXN3-HiBiT protein of 501 to 5000 nM.
In the case of `CC#Cc1c(C[C@@H](N)[C@H](C)F)oc2c(NCc3ccccc3)cc(Cl)nc12` [Compound 11, 2-[(2R,3S)-2-amino-3-fluorobutyl]-7-benzylamino-5-chloro-3-(1-propynyl)-1-oxa-4-azaindene], the IC50 was 101 to 500 nM with total ATXN3 protein and 0.01 to 100 nM in test [1] (Homo sapiens). In the test with ATXN3-HiBiT protein, the EC50 lay in the range of 0.01 to 100 nM.
`CC#Cc1c(C[C@@H](N)[C@H](C)F)oc2c(NCc3nccs3)cc(Cl)nc12` [Compound 12, 2-[(2R,3S)-2-amino-3-fluorobutyl]-5-chloro-3-(1-propynyl)-7-{[(1,3-thiazol-2-yl)methyl]amino}-1-oxa-4-azaindene]: the IC50 in the test on total ATXN3 protein lay within 101 to 500 nM; in test [1] (Homo sapiens), 0.01 to 100 nM. The EC50 in the test on ATXN3-HiBiT protein fell in the range of 0.01 to 100 nM.
Turning to `CC#Cc1c(C[C@@H](N)C2CC(F)(F)C2)oc2c(NCc3cccs3)cc(Cl)nc12` [Compound 15, 2-[(R)-2-amino-2-(3,3-difluorocyclobutyl)ethyl]-5-chloro-3-(1-propynyl)-7-thenylamino-1-oxa-4-azaindene], the IC50 (in the test on total ATXN3 protein; in test [1] (Homo sapiens)) was 501 to 5000 nM throughout. This molecule had an EC50 in the test on ATXN3-HiBiT protein of 501 to 5000 nM.
With `CCC#Cc1c(C[C@H](C)N)oc2c(NCc3cccs3)cc(Cl)nc12` [Compound 16, 2-[(S)-2-aminopropyl]-3-(1-butynyl)-5-chloro-7-thenylamino-1-oxa-4-azaindene], the IC50 (in the test on total ATXN3 protein; in test [1] (Homo sapiens)) was 101 to 500 nM each time. Moreover, the EC50 in the test with ATXN3-HiBiT protein lay in the range of 101 to 500 nM.
For the molecule `C[C@H](N)Cc1oc2c(NCc3cccs3)cc(Cl)nc2c1C#CCF` [Compound 19, 2-[(S)-2-aminopropyl]-5-chloro-3-(3-fluoro-1-propynyl)-7-thenylamino-1-oxa-4-azaindene], the IC50 (with total ATXN3 protein; in test [1] (Homo sapiens)) was 101 to 500 nM throughout. In the test on ATXN3-HiBiT protein, this molecule had an EC50 of 101 to 500 nM.
In the case of `CC#Cc1c(C[C@@H](N)COC)oc2c(NCc3cccs3)cc(Cl)nc12` [Compound 21, 2-[(R)-2-amino-3-methoxypropyl]-5-chloro-3-(1-propynyl)-7-thenylamino-1-oxa-4-azaindene], the IC50 was 101 to 500 nM in the test with total ATXN3 protein and 0.01 to 100 nM in test [1] (Homo sapiens). In addition, the EC50 with ATXN3-HiBiT protein was in the range of 0.01 to 100 nM.
In the case of `CCC#Cc1c(C[C@H](C)N)oc2c(NCc3ccco3)cc(Cl)nc12` [Compound 22, 2-[(S)-2-aminopropyl]-3-(1-butynyl)-5-chloro-7-(furfurylamino)-1-oxa-4-azaindene], the figures for the IC50 (with total ATXN3 protein; in test [1] (Homo sapiens)) were 501 to 5000 nM and 101 to 500 nM, respectively. This molecule showed an EC50 in the test with ATXN3-HiBiT protein of 501 to 5000 nM.
As to `CC#Cc1c(C[C@@H](N)[C@H](C)F)oc2c(NCc3cccs3)c(F)c(Cl)nc12` [Compound 37, 2-[(2R,3S)-2-amino-3-fluorobutyl]-5-chloro-6-fluoro-3-(1-propynyl)-7-thenylamino-1-oxa-4-azaindene], the IC50 in test [1] (Homo sapiens) lay in the range of 501 to 5000 nM.
`CC#Cc1c([C@H]2CCCC[C@@H]2N)oc2c(NCc3cccs3)cc(Cl)nc12` [Compound 49, 2-[(1S,2S)-2-aminocyclohexyl]-5-chloro-3-(1-propynyl)-7-thenylamino-1-oxa-4-azaindene]: the concentration for half-maximal inhibition (IC50) in test [1] (Homo sapiens) lay within 0.01 to 100 nM.
Same read-out and setting: the figure for `CC#Cc1c([C@H]2CC(F)(F)CC[C@@H]2N)oc2c(NCc3cccs3)cc(Cl)nc12` [Compound 52, 2-[(1S,2S)-2-amino-5,5-difluorocyclohexyl]-5-chloro-3-(1-propynyl)-7-thenylamino-1-oxa-4-azaindene] is 0.01 to 100 nM.

As usually defined, the IC50 is the concentration that gives 50% inhibition. The EC50 is the concentration giving half of the maximal effect. Higher therefore signals a less potent agent.

The values above are taken from US20260027118A1, “COMPOSITIONS USEFUL FOR MODULATING SPLICING” (Skyhawk Therapeutics, Inc., priority 2022, published 2026).
